A short description of this series: Properties of the drug substance (solubility, BCS class, stability). The format is physicochemical.

Data on 1 compound can be found in patent US20260191836A1, “SOLID PREPARATION CONTAINING OXIDIZED CLOPIDOGREL AND PREPARATION METHOD THEREFOR” (CHENGDU SHIBEIKANG BIOMEDICAL TECHNOLOGY CO., LTD., priority 2022, published 2026).

“Also recorded” adds a separate entry of the source.

For the compound `COC(=O)[C@H](c1ccccc1Cl)N1CC[C@@H]2SC(=O)C=C2C1` [(7aS, 2′S)-2-oxo-clopidogrel, methyl (S)-2-(2-chlorophenyl)-2-((S)-2-oxo-2,6,7,7a-tetrahydrothieno[3,2-c]pyridin-5 (4H)-yl)acetate], the BCS biopharmaceutical classification result is “low-solubility and high-permeability”; the “stability of the drug substance (in words)” value is “extremely prone to oxidative degradation; also recorded: instability under high temperature, acid and alkali conditions”. For the same compound, for the setting “acetonitrile”, the solubility in acetonitrile result is reported as “soluble”. In addition, the solubility in methanol entry (methanol) is “slightly soluble”. Besides, where the note is “water”, the solubility in water entry was “almost insoluble”.
